Experiments:
[1] = tested on: MDA-MB-231 and MDA-MB-468 cells; test: Immunofluorescence of γH2AX and p62; assay type: cell-based, Human
Protocol: (§1) Cells were plated on glass coverslips in 24-well plates prior to treatment. After being exposed to different doses of compound 7a for 48 h, cells were washed with PBS for three times, fixed with 4% paraformaldehyde-PBS for 30 min, and then followed by permeabilization with 0.1% Triton X-100 for 10 min. Next, the samples were blocked with QuickBlock Blocking Buffer for Immunol Staining (Beyotime) for 30 min at 37° C., and incubated with anti-Ki67 (1:250), anti-LC3B antibody (1:250), anti-SQSTM1 antibody (1:250) or anti-γH2AX (1:250) overnight at 4° C. After washing with PBS three times, the stained cells were incubated with Alexa Fluor-conjugated secondary antibodies (1:2000) for 1 hour at room temperature. Moreover, 1 mg/mL DAPI dissolved in PBS were employed to label nuclei (30 min). Images were captured with a High Content analysis system (Perkinelmer, MA, USA).

[2] = tested on: TNBC cells; test: Ki67-staining immunofluorescence; assay type: cell-based, Human; details: 48 h, versus controls
Protocol: as §1

[3] = tested on: MDA-MB-231 cells; test: MTT cell viability assay; assay type: cell-based; details: Homo sapiens
Protocol: (§2) Compounds were dissolved in a hydrous dimethylsulfoxide (DMSO, Life technologies) to obtain a 50 mM stock solution, which was then added to the culture medium at a concentration range of 6.25-100 μM. Cells were treated with compounds at indicated concentrations for 48 h, and 0.1% DMSO was used as the vehicle. Z-VAD-FMK was purchased from Selleckchem (Houston, Tex.); The reagents including 3-(4,5-dimethylthiazol-2-yl)-2,5-diphenyltetrazolium bromide (MTT), dimethyl sulfoxide (DMSO), penicillin, streptomycin, propidium iodide (PI) were purchased from Sigma-Aldrich (MO, USA); All the primary antibodies used in this study were from Cell Signaling Technology (MA, USA) and the secondary antibodies were from LI-COR Biosciences (NE, USA).
(§3) Human triple negative breast cancer cell lines MDA-MB-231 and MDA-MB-468 were purchased from the American Type Culture Collection (ATCC, VA, USA). These cells were cultured in high-glucose DMEM (Gibco, USA) supplemented with 10% fetal bovine serum (FBS, Gibco) and 1% penicillin/streptomycin (Gibco) at 37° C. in a humidified incubator containing 5% CO2.
(§4) The antiproliferative activity of compounds was measured with the MTT assay. […] The absorbance value was determined at 570 nm using a microplate reader (Bio-Tek, VT, USA). Data were analyzed by GraphPad Prism 6. […]

[4] = tested on: MDA-MB-468 cells; test: MTT cell viability assay; assay type: cell-based; details: Homo sapiens
Protocol: as §2, §3, §4

O=C(NC1CCCCC1)c1[nH]cnc1-c1nc2ccccc2[nH]1 [Compound 7a]
γH2AX foci ([1]; 48 h): accumulation of γH2AX foci in nuclei
p62 signal in nuclei ([1]; dose-dependent): accumulated in the nuclei
rate of Ki67-positive cells [2]: notably reduced rate of Ki67-positive cells
IC50 [3]: 8.3 µM
IC50 [4]: 6 µM

Reference: US11512073B2, “Benzimidazole derivatives, pharmaceutical composition comprising the same, and use thereof” (Chongqing University of Arts and Sciences, priority 2020, dated 2022)
